The values below are quoted from earlier work in US20250332127A1, “SYSTEM AND METHOD FOR DELIVERING THERAPEUTIC AGENTS TO THE UTERINE CAVITY” (priority 2021, published 2025).

Like-named read-outs stand apart in the source and are kept apart here.

As for `O=C=O` [CO2], the viscosity (at 20 degrees of Celsius) is given as 0.0147 centipoise.
Take `O=C(O)C(Cl)(Cl)Cl` [trichloroacetic acid]: the viscosity (trichloroacetic acid as used as therapeutic agent) is recorded as at least 1 centipoise.
